# Experimental data taken from US9447086B2, “6-amino acid heteroaryldihydropyrimidines for the treatment and prophylaxis of hepatitis B virus infection” (priority 2012, dated 2016).
# Like-named read-outs stand apart in the source and are kept apart here.
# Key:
# HBV [1] = test: Anti-HBV activity in vitro in HepG2.2.15 cells (extracellular HBV DNA by qPCR); format: cell-based, Hepatitis B virus; settings: Hepatitis B virus; HepG2.2.15 cells; in-house data; read-out: EC50
# In short: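 HepG2.2.15 cells, which constitutively produce HBV, were seeded overnight and then treated for 5 days with half-log serially diluted compounds at 0.5% final DMSO. Extracellular HBV DNA in culture supernatant was extracted and quantified by qPCR.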
# [2] = Cytotoxicity (CC50) in HepDE19 cells, CCK-8 cell viability; format: cell-based; settings: human, HepDE19 cells; read-out: CC50
# In short: (§1)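 HBV-transfected HepG2-derived HepDE19 cells grown in DMEM-F12 with 10% FBS and G418. Viability read five days after treatment by CCK-8, 2 h at 37 °C, absorbance at 450 and 630 nm.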
# HBV [3] = test: Selectivity index (CC50 value/EC50 value); format: cell-based, Hepatitis B virus
# In short: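 Ratio of CC50 to EC50, measuring antiviral activity against HBV relative to cytotoxicity in vitro; higher values indicate greater separation between viral inhibition and cell death.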
# [4] = Mouse SDPK (single dose PK in male ICR mouse, plasma and liver); format: in vivo; settings: male ICR mice
# Procedure: The single dose PK in male ICR mouse was performed to assess their pharmacokinetic properties. Two groups of animals were dosed via either bolus intravenous (IV) or oral gavage (PO) of the respective compound. The animals for oral administration were fasted overnight prior to dosing and food was resumed 4 hours postdose. Blood samples (approximately 400 μL) were collected via cardiac puncture after euthanasia by carbon dioxide inhalation at 2 mins, 5 mins, 15 mins, 30 mins, 1 h, 2 hrs, 4 hrs, 6 hrs, 8 hrs, and 24 hrs postdose for IV group, and at 5 mins, 15 mins, 30 mins, 1 h, 2 hrs, 4 hrs, 6 hrs, 8 hrs, and 24 hrs postdose for PO group. Blood samples were placed into tubes containing sodium heparin and centrifuged at 8000 rpm for 6 minutes at 4° C. to separate plasma from the samples. Following centrifugation, the resulting plasma was transferred to clean tubes for bioanalysis on LC/MS/MS. The pharmacokinetic parameters were calculated using non-compartmental module of WinNonlin® Professional 5.2.
# [5] = Metabolic stability study in human microsome; format: in vitro ADME
# In short: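 Human liver microsomes (0.5 mg/mL) with 1 μM compound in 100 mM phosphate pH 7.4 at 37 °C, started with 1 mM NADPH or an NADPH-regenerating system. Samples taken at 0, 3, 6, 9, 15 and 30 min, quenched in methanol. Parent remaining measured by LC-MS/MS; no-cofactor controls included.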
# [6] = Lyophilisation solubility assay (Lysa); format: physicochemical; settings: phosphate buffer, pH 6.5, aqueous buffer, thermodynamic from solid
# In short: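 Duplicate samples from 10 mM DMSO stocks are dried, redissolved in 0.05 M phosphate buffer pH 6.5, stirred 1 h, shaken 2 h and left overnight. Filtrate and its 1/10 dilution are quantified by direct UV or HPLC-UV, giving solubility in μg/mL.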
# HepDE19 cells = test: Cytotoxicity (CC50) in HepDE19 cells, CCK-8 cell viability; format: cell-based
# In short: as §1
SMILES,EC50 (HBV [1]),CC50 at 5 days [2],Selectivity index (CC50/EC50) (HBV [3]),"Liver AUC(0-∞) (PO) ([4]; liver, dose 3 mg/kg PO)","bioavailability ([4]; mouse, plasma, 1 mg/kg IV, 3 mg/kg PO, read-out: F (bioavailability))","AUC(0-inf) ([4]; mouse, plasma, dose 1 mg/kg IV, read-out: Plasma AUC(0-∞) (IV))","clearance ([4]; mouse, plasma, dose 1 mg/kg IV, read-out: Plasma Cl (IV))","AUC(0-inf) ([4]; mouse, plasma, dose 3 mg/kg PO, read-out: Plasma AUC(0-∞) (PO))",Human Hepatic Clearance [5],solubility thermodynamic [6],CC50 (HepDE19 cells)
"COC(=O)C1=C(CN2CC(F)(F)C[C@H]2C(=O)O)NC(c2nc(C)cs2)=N[C@H]1c1ccc(F)cc1Cl [Example 16, (R)-6-((S)-2-Carboxy-4,4-difluoro-pyrrolidin-1-ylmethyl)-4-(2-chloro-4-fluoro-phenyl)-2-(4-methyl-thiazol-2-yl)-1,4-dihydro-pyrimidine-5-carboxylic acid methyl ester]",2 nM,30000 nM,15000,35200 ng·h/mL,69%,290 ng·h/mL,57 mL/min/kg,598 ng·h/mL,6.35 mL/min/kg,> 622 µg/mL,–
"O=C(OCC(F)(F)F)C1=C(CN2CCOC[C@H]2C(=O)O)NC(c2nccs2)=N[C@H]1c1ccc(F)cc1Cl [Example 51, (S)-4-[(R)-6-(2-Chloro-4-fluoro-phenyl)-2-thiazol-2-yl-5-(2,2,2-trifluoro-ethoxycarbonyl)-3,6-dihydro-pyrimidin-4-ylmethyl]-morpholine-3-carboxylic acid]",13 nM,–,2117,–,–,–,–,–,0 mL/min/kg,> 695 µg/mL,27000 nM
"COC(=O)C1=C(CN2CCO[C@H](C)[C@H]2C(=O)O)NC(c2nccs2)=N[C@H]1c1ccc(F)cc1Cl [Example 104, (2R,3S)-4-[(R)-6-(2-Chloro-4-fluoro-phenyl)-5-methoxycarbonyl-2-thiazol-2-yl-3,6-dihydro-pyrimidin-4-ylmethyl]-2-methyl-morpholine-3-carboxylic acid]",7 nM,–,>14286,–,–,–,–,–,5.42 mL/min/kg,> 667 µg/mL,> 100000 nM
"CCOC(=O)C1=C(CN2CCOC[C@H]2C(=O)O)NC(c2nccs2)=N[C@H]1c1ccc(F)cc1Cl [Example 31, (S)-4-[(R)-6-(2-Chloro-4-fluoro-phenyl)-5-ethoxycarbonyl-2-thiazol-2-yl-3,6-dihydro-pyrimidin-4-ylmethyl]-morpholine-3-carboxylic acid]",2 nM,–,>50000,–,–,–,–,–,4.68 mL/min/kg,630 µg/mL,> 100000 nM
"COC(=O)C1=C(CN2CCOC[C@H]2C(=O)O)NC(c2nccs2)=N[C@H]1c1ccc(F)cc1Br [Example 81, (S)-4-[(R)-6-(2-Bromo-4-fluoro-phenyl)-5-methoxycarbonyl-2-thiazol-2-yl-3,6-dihydro-pyrimidin-4-ylmethyl]-morpholine-3-carboxylic acid]",6 nM,–,>16667,–,–,–,–,–,5.33 mL/min/kg,> 691 µg/mL,> 100000 nM
"CCOC(=O)C1=C(CN2CCOC[C@H]2C(=O)O)NC(c2nccs2)=N[C@H]1c1ccc(F)cc1F [Example 58, (S)-4-[(R)-6-(2,4-Difluoro-phenyl)-5-ethoxycarbonyl-2-thiazol-2-yl-3,6-dihydro-pyrimidin-4-ylmethyl]-morpholine-3-carboxylic acid]",14 nM,–,>7353,–,–,–,–,–,1.26 mL/min/kg,> 638 µg/mL,> 100000 nM
"COC(=O)C1=C(CN2CCOC[C@H]2C(=O)O)NC(c2nc(C(F)(F)F)cs2)=N[C@H]1c1ccc(F)cc1Cl [Example 95, (S)-4-[(R)-6-(2-Chloro-4-fluoro-phenyl)-5-methoxycarbonyl-2-(4-trifluoromethyl-thiazol-2-yl)-3,6-dihydro-pyrimidin-4-ylmethyl]-morpholine-3-carboxylic acid]",2.5 nM,–,40000,–,–,–,–,–,3.04 mL/min/kg,> 705 µg/mL,> 100000 nM
"CCOC(=O)C1=C(CN2CCOC[C@H]2C(=O)O)NC(c2nccs2)=N[C@H]1c1cccc(F)c1Cl [Example 63, (S)-4-[(R)-6-(2-Chloro-3-fluoro-phenyl)-5-ethoxycarbonyl-2-thiazol-2-yl-3,6-dihydro-pyrimidin-4-ylmethyl]-morpholine-3-carboxylic acid]",0.8 nM,–,>125000,–,–,–,–,–,1.71 mL/min/kg,> 679 µg/mL,> 100000 nM
"CCOC(=O)C1=C(CN2CCOC[C@H]2C(=O)O)NC(c2nccs2)=N[C@H]1c1ccc(F)c(F)c1Br [Example 128, (3S)-4-[[(4R)-4-(2-Bromo-3,4-difluorophenyl)-5-ethoxycarbonyl-2-(1,3-thiazol-2-yl)-1,4-dihydropyrimidin-6-yl]methyl]morpholine-3-carboxylic acid]",0.6 nM,–,85000,–,–,–,–,–,0.26 mL/min/kg,> 710 µg/mL,51000 nM
"COC(=O)C1=C(CN2CCOC[C@H]2C(=O)O)NC(c2nccs2)=N[C@H]1c1cccc(F)c1Cl [Example 47, (S)-4-[(R)-6-(2-Chloro-3-fluoro-phenyl)-5-methoxycarbonyl-2-thiazol-2-yl-3,6-dihydro-pyrimidin-4-ylmethyl]-morpholine-3-carboxylic acid]",4.4 nM,–,>2273,–,–,–,–,–,1.46 mL/min/kg,> 660 µg/mL,> 100000 nM
"COC(=O)C1=C(CN2CCOC[C@@]2(C)C(=O)O)NC(c2nccs2)=N[C@H]1c1ccc(F)cc1Cl [Example 121, (S)-4-(((R)-6-(2-Chloro-4-fluorophenyl)-5-(methoxycarbonyl)-2-(thiazol-2-yl)-3,6-dihydropyrimidin-4-yl)methyl)-3-methylmorpholine-3-carboxylic acid]",20 nM,–,>5000,–,–,–,–,–,1.42 mL/min/kg,600 µg/mL,> 100000 nM
"CCOC(=O)C1=C(CN2CCOC[C@H]2C(=O)O)NC(c2nccs2)=N[C@H]1c1ccc(F)c(F)c1Cl [Example 60, (S)-4-[(R)-6-(2-Chloro-3,4-difluoro-phenyl)-5-ethoxycarbonyl-2-thiazol-2-yl-3,6-dihydro-pyrimidin-4-ylmethyl]-morpholine-3-carboxylic acid]",0.6 nM,–,47783,–,–,–,–,–,4.8 mL/min/kg,> 703 µg/mL,29000 nM
"CCOC(=O)C1=C(CN2CCOC[C@H]2C(=O)O)NC(c2nccs2)=N[C@H]1c1ccccc1Cl [Example 82, (S)-4-[(R)-6-(2-Chloro-phenyl)-5-ethoxycarbonyl-2-thiazol-2-yl-3,6-dihydro-pyrimidin-4-ylmethyl]-morpholine-3-carboxylic acid]",14 nM,–,>7194,–,–,–,–,–,0 mL/min/kg,> 618 µg/mL,> 100000 nM
"CCOC(=O)C1=C(CN2CCOC[C@H]2C(=O)O)NC(c2nccs2)=N[C@H]1c1ccc(F)c(F)c1C [Example 96, (S)-4-[(S)-6-(3,4-Difluoro-2-methyl-phenyl)-5-ethoxycarbonyl-2-thiazol-2-yl-3,6-dihydro-pyrimidin-4-ylmethyl]-morpholine-3-carboxylic acid]",0.6 nM,–,161667,–,–,–,–,–,4.8 mL/min/kg,> 628 µg/mL,97000 nM
"CCOC(=O)C1=C(CN2CCOC[C@H]2C(=O)O)NC(c2nccs2)=N[C@H]1c1ccc(F)cc1 [Example 54, (S)-4-[(S)-5-Ethoxycarbonyl-6-(4-fluoro-phenyl)-2-thiazol-2-yl-3,6-dihydro-pyrimidin-4-ylmethyl]-morpholine-3-carboxylic acid]",14 nM,–,4293,–,–,–,–,–,0 mL/min/kg,> 606 µg/mL,62000 nM
